Where two headings read alike, the source gives them in different places. No end group written: not given here.
Legend:
Test in all cases: biochemical
DRB1*1201 = DRB1*1201 (Homo sapiens, UniProt P01903+P01911, A100R/A169T/D57E/D86V/F55L/H45Y/K41T/L162R/M171V/P40S/Q125H/Q178H/Q39Y/Q99D/R42G/S66L/T262R/V114A/V67L/W38E/Y59H/Y61H/Y89S); assay type: binding
DRB1*1101 = DRB1*1101 (Homo sapiens, UniProt P01903+P01911, A100R/A169T/A87E/I96F/K41T/L162R/M171V/P40S/Q125H/Q178H/Q39Y/Q99D/R42S/S66Y/T262R/V115G/W38E)
DR4w4 (DRB1*0401) = DR4w4 (DRB1*0401) (Homo sapiens, UniProt P01903+P01911, A100K/A169T/F76Y/I96L/K127E/L162R/M171V/N62H/P40V/Q125Y/R42H/S133A/S149N/S66Y/V115G/V209L/W38E); assay type: binding
DRB1*1302 = DRB1*1302 (Homo sapiens, UniProt P01903+P01911, A100E/A169T/K41T/L162R/M171V/P40S/Q125H/Q178H/Q39Y/Q99D/R42S/S66N/T262R/V115G/W38E/Y61H); assay type: binding
DRB4*0101 = DRB4*0101 (Homo sapiens, UniProt P01903+P13762, G164S); assay type: binding
DR1 (DRB1*0101) = DR1 (DRB1*0101) (Homo sapiens, UniProt P01903+P01911, A100R/D57E/F55L/F60I/F76Y/I96L/L162R/M171V/P40L/Q125E/R42F/V115G/Y59C); assay type: binding
DR7 (DRB1*0701) = DR7 (DRB1*0701) (Homo sapiens, UniProt P01903+P01911, A100R/A102G/A103Q/D57E/D86V/E43K/F76Y/K127E/L162R/M171V/P40G/Q125H/Q99D/R33Q/R42Y/R54Q/S133A/S66F/T210M/V115G/Y107V/Y59L/Y89S); assay type: binding
DRB5*0101 = DRB5*0101 (Homo sapiens, UniProt P01903+Q30154)
DRB1*0405 = DRB1*0405 (Homo sapiens, UniProt P01903+P01911, A100R/A169T/D86S/F76Y/I96L/K127E/L162R/M171V/N62H/P40V/Q125Y/R42H/S133A/S149N/S66Y/V115G/V209L/W38E); assay type: binding
DRB1*0901 = DRB1*0901 (Homo sapiens, UniProt P01903+P01911, A100R/A103E/D57H/D86V/F55Y/F60I/F76Y/I96F/K127E/L162R/M171V/P40D/Q125H/Q99R/R33Q/R42F/S133A/S66N/T210M/V115G/W38K/Y107V/Y59G/Y89S); assay type: binding
DRB1*0802 = DRB1*0802 (Homo sapiens, UniProt P01903+P01911, A100R/A103L/A169T/F76Y/H45Y/I96F/K41T/L162R/M171V/P40S/Q125H/Q178H/Q39Y/Q99D/R218S/R42G/S66Y/V115G/W38E); assay type: binding
DRB1*1501 = DRB1*1501 (Homo sapiens, UniProt P01903+P01911); assay type: binding

Sequence of DRB1*1302 (P01903 26-254 limits assumed, other chains not shown): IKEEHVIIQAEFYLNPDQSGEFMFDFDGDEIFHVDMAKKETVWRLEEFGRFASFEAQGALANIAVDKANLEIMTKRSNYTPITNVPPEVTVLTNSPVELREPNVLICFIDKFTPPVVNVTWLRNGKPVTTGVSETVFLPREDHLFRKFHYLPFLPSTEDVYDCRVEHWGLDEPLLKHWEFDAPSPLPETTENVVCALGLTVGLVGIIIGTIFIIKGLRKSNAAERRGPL
Sequence of DRB1*1101 (P01903 26-254 limits assumed, other chains not shown): as above

Compound | IC50 (DRB1*1201) [µM] | IC50 (DRB1*1101; Binding affinity DRB1 *1101) [µM] | IC50 (DR4w4 (DRB1*0401)) [µM] | IC50 (DRB1*1302) [µM] | IC50 (DRB4*0101) [µM] | IC50 (DR1 (DRB1*0101)) [µM] | IC50 (DR7 (DRB1*0701)) [µM] | IC50 (DRB5*0101; Binding affinity DRB5 *0101) [µM] | IC50 (DRB1*0405) [µM] | IC50 (DRB1*0901) [µM] | IC50 (DRB1*0802) [µM] | IC50 (DRB1*1501) [µM] | IC50 (DRB1*1101) [µM] | IC50 (DRB5*0101) [µM]
CC[C@H](C)[C@H](NC(=O)[C@H](CS)NC(=O)[C@H](Cc1c[nH]cn1)NC(=O)[C@H](C)NC(=O)[C@H](C)NC(=O)[C@@H](NC(=O)[C@H](CC(C)C)NC(=O)[C@@H](NC(=O)[C@H](Cc1c[nH]c2ccccc12)NC(=O)[C@H](CCC(N)=O)NC(=O)[C@@H]1CCCN1C(=O)[C@@H](N)Cc1c[nH]cn1)C(C)C)[C@@H](C)O)C(=O)N[C@@H](CCCNC(=N)N)C(=O)N[C@@H](CC(N)=O)C(=O)N[C@@H](CCCCN)C(=O)O [Peptide 68.0064] | 5.79 |  |  |  |  |  |  |  |  |  |  |  |  | 
CSCC[C@H](NC(=O)[C@H](CC(C)C)NC(=O)[C@H](CCC(N)=O)NC(=O)[C@H](CC(=O)O)NC(=O)[C@H](CC(N)=O)NC(=O)[C@H](CCSC)NC(=O)[C@H](CCSC)NC(=O)[C@H](CCCNC(=N)N)NC(=O)[C@H](CC(C)C)NC(=O)[C@@H](N)C(C)C)C(=O)N[C@@H](Cc1ccccc1)C(=O)N[C@@H](CC(C)C)C(=O)N[C@@H](CCC(=O)O)C(=O)N[C@@H](CCCNC(=N)N)C(=O)N[C@@H](C)C(=O)O [Peptide 68.0130] | 0.098 |  |  |  |  |  |  |  |  |  |  |  |  | 
CC[C@H](C)[C@H](NC(=O)[C@H](CCCCN)NC(=O)[C@H](C)NC(=O)[C@@H]1CCCN1C(=O)[C@H](CCC(=O)O)NC(=O)[C@H](CO)NC(=O)[C@H](CC(C)C)NC(=O)[C@H](CCCNC(=N)N)NC(=O)[C@H](CC(C)C)NC(=O)[C@H](CC(C)C)NC(=O)[C@H](CCSC)NC(=O)[C@H](CC(C)C)NC(=O)[C@H](CC(=O)O)NC(=O)[C@@H](N)Cc1c[nH]cn1)C(=O)N[C@H](C(=O)O)[C@@H](C)O [Peptide 68.0011] | 0.084 |  |  |  |  |  |  |  |  |  |  |  |  | 
NSRLLQERGVAYINA [Peptide 68.0176] | 0.62 |  |  |  |  |  |  |  |  |  |  |  |  | 
NHQVVPALSVSKAKA [Peptide 89.0168] |  | > 20 | 0.959 | 0.9 | > 20 | > 20 | > 20 | > 20 | > 20 | > 20 | > 20 | 7.34 |  | 
LRMMNDQLMFLERAF [Peptide 68.0131] | 0.28 |  |  |  |  |  |  |  |  |  |  |  |  | 
QQQMFLGTVKIPPTV [Peptide 89.0187] |  | 5.88 | 0.07 | 3.34 | 1.59 | 0.743 | > 20 | > 20 | 6.33 | > 20 | 7.29 | 1 |  | 
GKSYFGMSLISFLQG [Peptide 89.0056] |  | 0.9 | 1.09 | 1.34 | 1.96 | 0.17 | 0.284 | > 20 | 1.23 | 0.512 | 6.02 | 4.79 |  | 
LVQIKCPPLLITTNI [Peptide 89.0138] |  |  | > 20 | > 20 | 0.018 | > 20 | > 20 |  | > 20 | > 20 | > 20 | > 20 | > 20 | > 20
SQLLNIPETHMVIEP [Peptide 89.0102] |  | > 20 | > 20 | > 20 | 0.807 | > 20 | > 20 | > 20 | > 20 | > 20 | > 20 | > 20 |  | 
HCTLYTAVSSTWHWT [Peptide 89.0157] |  | > 20 | 19 | 0.867 | > 20 | 2.89 | > 20 | > 20 | > 20 | > 20 | > 20 | > 20 |  | 
IHFLKGCIISYVNSK [Peptide 89.0147] |  | > 20 | 3.84 | > 20 | 1.36 | > 20 | 6.49 | > 20 | > 20 | > 20 | > 20 | > 20 |  | 
LSQVKIPKTITVSTG [Peptide 89.0158] |  | 3.63 | 0.373 | > 20 | > 20 | 4.5 | 5.83 | > 20 | > 20 | 5.48 | > 20 | 1.91 |  | 
EVHVGGQVIVCPASV [Peptide 90.0015] |  | > 20 | 2.1 | 0.152 | 0.389 | 4.09 | 0.187 | > 20 | 6.78 | 2.6 | > 20 | > 20 |  | 
DSQIAFQYAQLADVD [Peptide 89.0130] |  |  | 3 | > 20 | 0.014 | > 20 | > 20 |  | 9.99 | > 20 | > 20 | > 20 | > 20 | 17.1
DSEIAYKYAQLADTN [Peptide 89.0012] |  | 3.54 | 1.95 | > 20 | 0.275 | 0.734 | > 20 | 19.6 | 11 | 1.93 | 1.12 | 3.44 |  | 
LKTVKIPNTVQVIQG [Peptide 90.0017] |  | > 20 | > 20 | 0.033 | > 20 | 8.18 | 0.777 | > 20 | 19.2 | > 20 | > 20 | > 20 |  | 
RNLVDGNPISLDRKH [Peptide 89.0137] |  |  | 1.04 | > 20 | 0.992 | 11.2 | 7.38 |  | > 20 | > 20 | > 20 | > 20 | > 20 | > 20
NSIFDFGEMVQWAYD [Peptide 89.0106] |  | > 20 | 5.25 | 0.532 | 3.95 | 4.85 | 5.98 | > 20 | > 20 | > 20 | > 20 | 9.98 |  | 
CC[C@H](C)[C@H](NC(=O)[C@H](C)NC(=O)[C@H](CCCCN)NC(=O)[C@H](Cc1c[nH]cn1)NC(=O)[C@H](C)NC(=O)[C@H](CCCCN)NC(=O)[C@H](CO)NC(=O)[C@H](CCCCN)NC(=O)[C@H](CO)NC(=O)[C@@H](NC(=O)[C@H](CC(N)=O)NC(=O)[C@H](Cc1ccc(O)cc1)NC(=O)[C@H](C)N)[C@@H](C)CC)C(=O)N[C@@H](CCC(=O)O)C(=O)N[C@@H](CC(C)C)C(=O)O [Peptide 89.0159] |  | > 20 | > 20 | > 20 | > 20 | 0.651 | > 20 | > 20 | > 20 | > 20 | > 20 | > 20 |  | 
LKRFLQGIPKKNCIL [Peptide 89.0016] |  | 2.54 | 0.944 | > 20 | 1.7 | 0.069 | > 20 | 0.0055 | > 20 | 7.67 | 3.29 | 3.62 |  | 

Source: patent US9340577B2, “HLA binding motifs and peptides and their uses” (priority 1992, dated 2016)
